Results reported in US9512059B2, “Killing of bed bugs” (BEDOUKIAN RESEARCH, INC., priority 2012, dated 2016).

System: bed bugs
Assay: forced exposure toxicity test on treated filter paper circles
Assay type: in vivo, Cimex species
Details: compound diluted 5% in acetone, bed bug mortality at 24 hours
Method: Toxicity of compounds of structure (I) was determined by forced exposure testing under the following protocol. Five filter paper circles were laid on a flat surface and treated with the test compounds. Five replicates of five bed bugs were released onto each of the treated paper circles. Petri dish bottoms with circular openings were placed over the treated paper circles and served as the exposure arenas. The sides of the Petri dish bottoms were also painted with Fluon to prevent the bed bugs from climbing the sides. The bed bugs were thus confined to the treated paper circles for the duration of the test. Observations were made for mortality of the bed bugs at 24 hours.

Row | SMILES | Mortality @ 24 hours
1 | CCCCC1CC(=O)C=C(C)C1 (centres unmarked) [3-Methyl-5-Butyl-2-Cyclohexen-1-one] | 50%
2 | CCC1CC(=O)C=C(C)C1 (centres unmarked) [3-Methyl-5-Ethyl-2-Cyclohexenone] | 78%
3 | CC1=CC(O)CC(CC(C)C)C1 (centres unmarked) [3-Methyl-5-Isobutyl-2-cyclohexenol] | 10%
4 | CCCC1CC(C)=CC(O)C1 (centres unmarked) [3-Methyl-5-propyl-2-cyclohexenol] | 60%
5 | CCCC1CC(=O)C=C(C)C1 (centres unmarked) [3-Methyl-5-propyl-2-cyclohexenone] | 100%
